Values joined by “and” are separate entries in the source; they are usually repeats but may differ in a detail not shown here. Equal values may be shown once. Active and inactive are the calls of the source. No cut-off for these calls is given here.
Tests used:
[1] = tested on: Plasmodium falciparum; assay: Antimalarial activity against chloroquine-sensitive Plasmodium falciparum 3D7 infected in human erythrocyte assessed as parasite viability after 48 hrs by [3H]hypoxanthine incorporation based liquid scintillation counting analysis; assay type: functional, organism-based
[2] = tested on: Plasmodium falciparum; assay: Antimicrobial activity against blood stage chloroquine-sensitive Plasmodium falciparum 3D7 infected in human erythrocyte assessed as inhibition of invasion event of merozoites after 6 hrs by Giemsa staining based light microscopy; assay type: functional, organism-based
[3] = tested on: Plasmodium falciparum; assay: Antimalarial activity against chloroquine-sensitive Plasmodium falciparum 3D7 infected in human erythrocyte assessed as parasite viability after 60 hrs by [3H]hypoxanthine incorporation based liquid scintillation counting analysis; assay type: functional, organism-based
[4] = tested on: Plasmodium falciparum; assay: Antimicrobial activity against ring stage trophozoite chloroquine-sensitive Plasmodium falciparum 3D7 infected in human erythrocyte assessed as abnormal morphologies at 43.68 uM after 16 hrs by Giemsa staining based light microscopy; assay type: functional, organism-based
[5] = tested on: Plasmodium falciparum; assay: Antimalarial activity against chloroquine-sensitive Plasmodium falciparum 3D7 infected in human erythrocyte assessed as parasite viability after 90 hrs by [3H]hypoxanthine incorporation based liquid scintillation counting analysis; assay type: functional, organism-based
[6] = tested on: Plasmodium falciparum; assay: Antimicrobial activity against blood stage chloroquine-sensitive Plasmodium falciparum 3D7 infected in human erythrocyte assessed as abnormal morphologies at 21.8 uM after 6 hrs by Giemsa staining based light microscopy; assay type: functional, organism-based
[7] = tested on: Plasmodium falciparum; assay: Antimicrobial activity against chloroquine-resistant Plasmodium falciparum 7G8 infected in human erythrocyte assessed as parasite viability after 48 hrs by [3H]hypoxanthine incorporation based liquid scintillation counting analysis; assay type: functional
[8] = tested on: Plasmodium falciparum; assay: Antimicrobial activity against ring stage trophozoite chloroquine-sensitive Plasmodium falciparum 3D7 infected in human erythrocyte assessed as abnormal morphologies at 21.8 uM after 16 hrs by Giemsa staining based light microscopy; assay type: functional, organism-based
[9] = tested on: Plasmodium falciparum; assay: Antimicrobial activity against blood stage chloroquine-sensitive Plasmodium falciparum 3D7 infected in human erythrocyte assessed as abnormal morphologies at 43.68 uM after 6 hrs by Giemsa staining based light microscopy; assay type: functional, organism-based
[10] = Toxicity in human erythrocytes assessed as hemolytic activity up to 50 ug/ml after 42 hrs by spectrophotometric analysis; assay type: cell-based; conditions: erythrocyte
[11] = tested on: Plasmodium falciparum; assay: Antimicrobial activity against ring stage trophozoite chloroquine-sensitive Plasmodium falciparum 3D7 infected in human erythrocyte assessed as abnormal morphologies at 27.64 uM after 16 hrs by Giemsa staining based light microscopy; assay type: functional, organism-based
[12] = tested on: Plasmodium falciparum; assay: Antimicrobial activity against chloroquine-sensitive Plasmodium falciparum 3D7 infected in human erythrocyte assessed as parasite viability after 42 hrs by [3H]hypoxanthine incorporation based liquid scintillation counting analysis in presence of 12.5 ng/ml; assay type: functional, organism-based
[13] = tested on: Plasmodium falciparum; assay: Antimicrobial activity against chloroquine-sensitive Plasmodium falciparum 3D7 infected in human erythrocyte assessed as parasite viability after 42 hrs by [3H]hypoxanthine incorporation based liquid scintillation counting analysis in presence of 6.25 ng/ml; assay type: functional, organism-based
[14] = tested on: Plasmodium falciparum; assay: Antimicrobial activity against blood stage chloroquine-sensitive Plasmodium falciparum 3D7 infected in human erythrocyte assessed as abnormal morphologies at 27.64 uM after 6 hrs by Giemsa staining based light microscopy; assay type: functional, organism-based
[15] = tested on: Plasmodium falciparum; assay: Antimicrobial activity against blood stage chloroquine-sensitive Plasmodium falciparum 3D7 infected in human erythrocyte assessed as abnormal morphologies at 55.28 uM after 6 hrs by Giemsa staining based light microscopy; assay type: functional, organism-based
[16] = tested on: Plasmodium falciparum; assay: Antimicrobial activity against ring stage trophozoite chloroquine-sensitive Plasmodium falciparum 3D7 infected in human erythrocyte assessed as abnormal morphologies at 55.28 uM after 16 hrs by Giemsa staining based light microscopy; assay type: functional, organism-based
[17] = tested on: Plasmodium falciparum; assay: Antimicrobial activity against chloroquine-sensitive Plasmodium falciparum 3D7 infected in human erythrocyte assessed as parasite viability after 42 hrs by [3H]hypoxanthine incorporation based liquid scintillation counting analysis in presence of 25 ng/ml; assay type: functional, organism-based
[18] = molecular target: T1, Falcipain 2 (Plasmodium falciparum) (UniProt Q9N6S8); assay: Inhibition of Plasmodium falciparum Falcipain 2 at 500 nM by hemoglobin hydrolysis assay
T1 sequence (whole entry): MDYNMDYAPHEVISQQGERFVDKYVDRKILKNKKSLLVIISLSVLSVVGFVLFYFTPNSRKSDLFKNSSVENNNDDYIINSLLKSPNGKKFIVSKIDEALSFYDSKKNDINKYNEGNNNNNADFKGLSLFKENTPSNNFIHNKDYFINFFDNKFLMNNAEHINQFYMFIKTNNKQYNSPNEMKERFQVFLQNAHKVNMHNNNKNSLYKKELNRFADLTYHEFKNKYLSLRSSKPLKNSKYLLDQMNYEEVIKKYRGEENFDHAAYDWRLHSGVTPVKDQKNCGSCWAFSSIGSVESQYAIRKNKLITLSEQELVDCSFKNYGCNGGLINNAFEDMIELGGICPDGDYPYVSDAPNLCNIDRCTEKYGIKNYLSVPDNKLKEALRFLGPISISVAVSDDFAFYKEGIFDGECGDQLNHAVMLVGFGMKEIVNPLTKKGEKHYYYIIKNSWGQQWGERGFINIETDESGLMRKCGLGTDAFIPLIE

[19] = molecular target: T1, Falcipain 2 (Plasmodium falciparum); assay: Inhibition of Plasmodium falciparum Falcipain 2 at 5 nM by hemoglobin hydrolysis assay
[20] = molecular target: T1, Falcipain 2 (Plasmodium falciparum); assay: Inhibition of Plasmodium falciparum Falcipain 2 using Z-Leu-Arg-AMC substrate assessed as fluorogenic substrate hydrolysis
[21] = tested on: Plasmodium falciparum; assay: Antimicrobial activity against chloroquine-sensitive Plasmodium falciparum 3D7 infected in human erythrocyte assessed as parasite viability at 6.25 to 25 ng/ml after 42 hrs by [3H]hypoxanthine incorporation based liquid scintillation counting analysis; assay type: functional, organism-based

Which results are given for `O=C([C@H](Cc1ccccc1)N1C(=O)c2ccccc2C1=O)N1CCC(Cc2ccccc2)CC1`?
IC50 [1]: 5.5 µg/mL and 12.2 µM; inhibition [2]: Dose-dependent effect; IC50 [3]: 5000 nM; Activity [4]: Active; IC50 [5]: 3800 nM; Activity [6]: Active; IC50 [7]: 13300 nM; Activity [8]: Active; Activity [9]: Active; Activity [10]: Non-toxic

With `CC(C)C[C@@H](C(=O)N1CCOCC1)N1C(=O)c2ccccc2C1=O` as the compound, how does the IC50 [1] read?
The IC50 was 46 µg/mL and 139 µM.

Which IC50 [1] does the source give for `CC[C@@H](C)[C@@H](C(=O)N1CCCC1)N1C(=O)c2ccccc2C1=O` here?
Its IC50 is 46 µg/mL and 146 µM.

What does the source list for `CC[C@@H](C)[C@@H](C(=O)N1CCN(C(=O)[C@H]([C@H](C)CC)N2C(=O)c3ccccc3C2=O)CC1)N1C(=O)c2ccccc2C1=O`?
Activity [11]: Active; IC50 [1]: 3.42 µg/mL and 5.97 µM; IC50 [12]: 1920 nM; inhibition [2]: Dose-dependent effect; IC50 [13]: 2440 nM; IC50 [3]: 2000 nM; Activity [14]: Active; Activity [15]: Active; Activity [16]: Active; IC50 [5]: 1100 nM; IC50 [7]: 7210 nM; IC50 [17]: 1390 nM; Activity [10]: Non-toxic

For `CC(C)C[C@@H](C(=O)N1CCCC1)N1C(=O)c2ccccc2C1=O`, which IC50 [1] is on record?
The IC50 was 74.2 µg/mL and 236 µM.

Which inhibition [18] does the source give for `O=C([C@H](Cc1ccccc1)N1C(=O)c2ccccc2C1=O)N1CCCC1` here?
The inhibition was “Active”.

And the IC50 [1]?
Its IC50 is 31.5 µg/mL and 87.6 µM.

What about the inhibition [19] of the same compound?
The inhibition was “Active”.

And the inhibition [20]?
The inhibition was “Active”.

Which IC50 [1] does the source give for `CC[C@H](C)[C@@H](C(=O)N1CCC(Cc2ccccc2)CC1)N1C(=O)c2ccccc2C1=O` here?
Its IC50 is 22.5 µg/mL and 53.8 µM.

With `O=C([C@H](Cc1ccccc1)N1C(=O)c2ccccc2C1=O)N1CCCCC1` as the compound, how does the IC50 [1] read?
The IC50 was 13 µg/mL and 36 µM.

For `CC(C)[C@@H](C(=O)N1CCN(C(=O)[C@H](C(C)C)N2C(=O)c3ccccc3C2=O)CC1)N1C(=O)c2ccccc2C1=O`, which IC50 [1] is on record?
The IC50 was 9.2 µg/mL and 16.9 µM.

For `CC(C)[C@@H](C(=O)N1CCCCC1)N1C(=O)c2ccccc2C1=O`, which IC50 [1] is on record?
Its IC50 is 41 µg/mL and 130 µM.

Which IC50 [1] does the source give for `CC(C)C[C@@H](C(=O)N1CCCCC1)N1C(=O)c2ccccc2C1=O` here?
The IC50 was 71.5 µg/mL and 218 µM.

Which results are given for `O=C([C@H](Cc1ccccc1)N1C(=O)c2ccccc2C1=O)N1CCN(C(=O)[C@H](Cc2ccccc2)N2C(=O)c3ccccc3C2=O)CC1`?
IC50 [1]: 33.8 µg/mL and 52.7 µM; inhibition [20]: Active

For `CC(C)[C@@H](C(=O)N1CCCC1)N1C(=O)c2ccccc2C1=O`, which IC50 [1] is on record?
Its IC50 is 42.5 µg/mL and 142 µM.

Which IC50 [1] does the source give for `CC(C)[C@@H](C(=O)N1CCC(Cc2ccccc2)CC1)N1C(=O)c2ccccc2C1=O` here?
Its IC50 is 19.5 µg/mL and 48.2 µM.

With `CC[C@@H](C)[C@@H](C(=O)N1CCOCC1)N1C(=O)c2ccccc2C1=O` as the compound, how does the IC50 [1] read?
The IC50 was 20 µg/mL and 60.6 µM.

What does the source list for `O=C([C@H](Cc1ccccc1)N1C(=O)c2ccccc2C1=O)N1CCOCC1`?
inhibition [18]: Active; IC50 [1]: 18 µg/mL and 49.4 µM; inhibition [19]: Active; inhibition [20]: Active

With `CC(C)[C@@H](C(=O)N1CCOCC1)N1C(=O)c2ccccc2C1=O` as the compound, how does the IC50 [1] read?
The IC50 was 65 µg/mL and 206 µM.

With `CC(C)C[C@@H](C(=O)N1CCC(Cc2ccccc2)CC1)N1C(=O)c2ccccc2C1=O` as the compound, how does the IC50 [1] read?
The IC50 was 18.5 µg/mL and 44.2 µM.

With `CC[C@@H](C)[C@@H](C(=O)N1CCCCC1)N1C(=O)c2ccccc2C1=O` as the compound, how does the IC50 [1] read?
The IC50 was 35 µg/mL and 107 µM.

What does the source list for `C[C@@H]1CC[C@H]2[C@@H](C)C(=O)O[C@@H]3O[C@@]4(C)CC[C@@H]1[C@]32OO4` [ARTEMISININ]?
IC50 [1]: 0.045 µg/mL and 159 nM; inhibition [21]: inactive

With `CC(C)C[C@@H](C(=O)N1CCN(C(=O)[C@H](CC(C)C)N2C(=O)c3ccccc3C2=O)CC1)N1C(=O)c2ccccc2C1=O` as the compound, how does the IC50 [1] read?
Its IC50 is 61 µg/mL and 203 µM.

Reference: ChEMBL document CHEMBL3400128, “Design, synthesis and biological evaluation of functionalized phthalimides: a new class of antimalarials and inhibitors of falcipain-2, a major hemoglobinase of malaria parasite” (Bioorg Med Chem, 2015)
